We go through 4 molecules from patent publication US5459156A, “Imidazolyl-substituted phenylacetic acid prolinamides” (Bayer Aktiengesellschaft, priority 1993, dated 1995).

One test deals with smooth muscle cells. In words: Inhibition of the proliferation of smooth muscle cells (3H-thymidine incorporation). Format: cell-based, rats. Conditions: rat aorta smooth muscle cells; inhibition of thymidine incorporation produced by 10% FCS; Table B. How it is done:
Investigation of the Inhibition of the Proliferation of Smooth Muscle Cells by the Compounds According to the Invention
To determine the antiprofilerative action of the compounds, smooth muscle cells are used which are obtained from aortas of rats by the media explant technique [R. Ross, J. Cell. Biol. 50, 172, 1971]. The cells are inoculated in suitable culture dishes, as a rule 96-hole plates, and cultured in 5% CO2 at 37° C. for 2-3 days in medium 199 containing 7.5% FCS and 7.5% NCS, 2 mM L-glutamine and 15 mM HEPES, pH 7.4. The cells are then synchronized by withdrawal of serum for 2-3 days and then stimulated into growth with serum or other factors. Test compounds are simultaneously added. After 16-20 hours, 1 μCi ^3 H-thymidine is added and after a further 4 hours the incorporation of this substance into the TCA-precipitatable DNA of the cells is determined. To determine the IC50 values, the active compound concentration is determined which, on sequential dilution of the active compound, causes semi-maximal inhibition of the thymidine incorporation produced by 10% FCS.
(Incorporation of labelled thymidine or its analogues reports DNA synthesis.)

A further test concerns the target T1, Angiotensin II Receptor (Bos taurus, UniProt P25104).
T1 construct: partially purified membrane fractions of bovine AGC using radioactive angiotensin II; from tissue; host or cells: bovine adrenal gland cortex, partially purified membrane fractions
T1 sequence (P25104 1-359): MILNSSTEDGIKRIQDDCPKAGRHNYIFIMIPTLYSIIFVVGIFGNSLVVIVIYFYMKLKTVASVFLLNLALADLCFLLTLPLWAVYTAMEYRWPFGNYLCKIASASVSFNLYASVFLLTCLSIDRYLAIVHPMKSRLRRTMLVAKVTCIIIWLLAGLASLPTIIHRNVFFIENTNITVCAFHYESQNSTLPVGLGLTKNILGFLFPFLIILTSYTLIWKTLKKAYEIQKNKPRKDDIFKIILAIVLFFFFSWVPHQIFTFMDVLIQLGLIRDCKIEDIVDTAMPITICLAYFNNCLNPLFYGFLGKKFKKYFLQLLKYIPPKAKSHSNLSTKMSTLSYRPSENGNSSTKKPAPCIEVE
In words: Inhibition of the specific binding of radioactive angiotensin II to the angiotensin II receptor in membrane fractions of the adrenal gland cortex (bovine). Conditions: bovine adrenal gland cortex membranes; 3H-angiotensin II (3-5 nM); 60 min, room temperature; Table A. The text has this:
Interaction of the Compounds According to the Invention with the Angiotensin II Receptor in Membrane Fractions of the Adrenal Gland Cortex (Bovine)
Bovine adrenal gland cortices (AGC), which have been freshly removed and carefully freed from gland medulla, are comminuted in sucrose solution (0.32M) with the aid of an Ultra-Turrax (Janke & Kunkel, Staufen i.B.) to give a coarse membrane homogenate and partially purified in two centrifugation steps to give membrane fractions. The receptor binding investigations are carried out on partially purified membrane fractions of bovine AGC using radioactive angiotensin II in an assay volume of 0.25 ml, which specifically contains the partially purified membranes (50-80 μg), ^3 H-angiotensin II (3-5 nM), test buffer solution (50 mM Tris, pH 7.2), 5 mM MgCl2 and the substances to be investigated. After an incubation time of 60 min at room temperature, the unbound radioactivity of the samples is separated by means of moistened glass fibre filters (Whatman GF/C) and the bound radioactivity is measured spectrophotometrically in a scintillation cocktail after washing the protein with ice-cold buffer solution (50 mM Tris/HCl, pH 7.4, 5% PEG 6000). […]

As a reminder, the IC50 is the point on the concentration scale where inhibition reaches its midpoint. The molecule `CCCCc1nc(Cl)c(CO)n1Cc1ccc(C(C(=O)N2CCC[C@H]2C(=O)N[C@H](CO)c2ccccc2)C2CCCC2)cc1` (stereo partly drawn) [Example 9, 2-[4-(2-Butyl-4-chloro-5-hydroxymethyl-imidazol-1-yl-methyl)phenyl]-2-cyclopentylacetic acid (L-prolinephenylglycinolamido) amide] gave a concentration for half-maximal inhibition (IC50) with smooth muscle cells of 0.86 µM.
Turning to `CCCCc1nc(Cl)c(C(=O)O)n1Cc1ccc(C(C(=O)N2CCC[C@H]2C(=O)OCc2ccccc2)C2CCCC2)cc1` (stereo partly shown) [Example 12], at Angiotensin II Receptor, the IC50 is 0.29 µM.
In turn, `CCCCc1nc(Cl)c(CO)n1Cc1ccc(C(C(=O)N2CCC[C@H]2C(=O)OC(C)(C)C)C2CCCC2)cc1` (single isomer, unassigned) [Example 14] displayed an IC50 with smooth muscle cells of 0.45 µM.
On to `CCCCc1nc(Cl)c(C(=O)O)n1Cc1ccc(C(C(=O)N2CCC[C@H]2C(N)=O)C2CCCC2)cc1` (stereo partly drawn) [Example 7, 2-[4-(2-Butyl-4-chloro-5-carboxy-imidazol-1-yl-methyl)-phenyl]-2-cyclopentylacetic acid (L-prolinamido) amide], for which the concentration for half-maximal inhibition (IC50) on Angiotensin II Receptor is 0.58 µM.
